The target of this test is T1, human α1d receptor (Homo sapiens, UniProt P25100).
T1 construct: The entire coding region of α1d (1719 bp); expressed in transfected cells; host or cells: LM(tk-) mouse fibroblast line L-α1A (old nomenclature), ATCC CRL 11138
T1 sequence (P25100 1-572): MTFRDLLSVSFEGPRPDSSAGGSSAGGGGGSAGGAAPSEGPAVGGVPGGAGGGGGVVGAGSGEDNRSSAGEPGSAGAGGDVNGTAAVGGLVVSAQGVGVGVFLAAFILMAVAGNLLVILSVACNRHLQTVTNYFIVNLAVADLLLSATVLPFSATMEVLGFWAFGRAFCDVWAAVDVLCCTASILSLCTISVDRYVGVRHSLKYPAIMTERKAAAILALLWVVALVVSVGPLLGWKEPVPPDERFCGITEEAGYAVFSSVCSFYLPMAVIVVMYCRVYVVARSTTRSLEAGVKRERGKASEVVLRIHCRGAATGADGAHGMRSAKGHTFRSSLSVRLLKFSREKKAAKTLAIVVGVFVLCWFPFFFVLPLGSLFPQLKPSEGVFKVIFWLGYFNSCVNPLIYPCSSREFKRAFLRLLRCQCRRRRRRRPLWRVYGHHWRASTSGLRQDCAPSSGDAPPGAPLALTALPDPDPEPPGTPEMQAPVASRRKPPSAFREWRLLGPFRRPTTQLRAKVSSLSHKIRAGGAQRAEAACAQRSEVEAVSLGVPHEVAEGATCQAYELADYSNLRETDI
The experiment in a line: Radioligand binding ([^3 H]prazosin) at cloned human α1d receptor. The note with it: LM(tk-) cell membranes, read-out: hα1d Ki. On the procedure:
Binding affinities were measured for selected compounds of the invention at six cloned human α1 and α2 receptor subtypes, as well as at the L-type calcium channel. The protocols for these experiments are given below.
The activity of compounds at the different human receptors was determined in vitro using cultured cell lines that selectively express the receptor of interest. These cell lines were prepared by transfecting the cloned cDNA or cloned genomic DNA or constructs containing both genomic DNA and cDNA encoding the human α-adrenergic receptors as follows:
α1d Human Adrenergic Receptor: The entire coding region of α1d (1719 bp), including 150 base pairs of 5' untranslated sequence (5' UT) and 300 bp of 3' untranslated sequence (3' UT), was cloned into the BamHI and ClaI sites of the polylinker-modified eukaryotic expression vector pCEXV-3, called EXJ.HR. The construct involved the ligation of partial overlapping human lymphocyte genomic and hippocampal cDNA clones: 5' sequence were contained on a 1.2 kb SmaI-XhoI genomic fragment (the vector-derived BamHI site was used for subcloning instead of the internal insert-derived SmaI site) and 3' sequences were contained on an 1.3 kb XhoI-ClaI cDNA fragment (the ClaI site was from the vector polylinker). Stable cell lines were obtained by cotransfection with the plasmid α1A/EXJ (expression vector containing the α1a receptor gene (old nomenclature)) and the plasmid pGCcos3neo (plasmid containing the aminoglycoside transferase gene) into LM(tk-) cells using calcium phosphate technique. The cells were grown, in a controlled environment (37° C., 5% CO2), as monolayers in Dulbecco's modified Eagle's Medium (GIBCO, Grand Island, N.Y.) containing 25 mM glucose and supplemented with 10% bovine calf serum, 100 units/ml penicillin g, and 100 μg/ml streptomycin sulfate. Stable clones were then selected for resistance to the antibiotic G-418 (1 mg/ml), and membranes were harvested and assayed for their ability to bind [^3 H]prazosin as described below (see "Radioligand Binding assays").
The cell line expressing the human α1d receptor used herein was designated L-α1A (old nomenclature) and was deposited with the American Type Culture Collection, 12301 Parklawn Drive, Rockville, Md. 20852, U.S.A. under the provisions of the Budapest Treaty for the International Recognition of the Deposit of Microorganisms for the Purposes of Patent Procedure. The cell line expressing the human α1d receptor, was accorded ATCC Accession No. CRL 11138, and was deposited on Sep. 25, 1992.
Radioligand Binding Assays for α1 receptors:
Transfected cells from culture flasks were scraped into 5 ml of 5 mM Tris-HCl, 5 mM EDTA, pH 7.5, and lysed by sonication. The cell lysates were centrifuged at 1000 rpm for 5 min at 4° C., and the supernatant was centrifuged at 30,000× g for 20 min at 4° C. The pellet was suspended in 50 mM Tris-HCl, 1 mM MgCl2, and 0.1% ascorbic acid at pH 7.5. Binding of the α1 antagonist [^3 H]prazosin (0.5 nM, specific activity 76.2 Ci/mmol) to membrane preparations of LM(tk-) cells was done in a final volume of 0.25 ml and incubated at 37° C. for 20 min. Nonspecific binding was determined in the presence of […] phentolamine. The reaction was stopped by filtration through GF/B filters using a cell harvester. Inhibition experiments, routinely consisting of 7 concentrations of the tested compounds, were analyzed using a non-linear regression curve-fitting computer program to obtain Ki values.
The compounds described above were assayed using cloned human alpha adrenergic receptors. […] The binding affinities of several compounds are illustrated in the following table.
Binding affinities of selected compounds of the present invention at cloned human α1d, α1b and α1a receptors. (h=human)

Molecules are shown by their SMILES.

The Ki is a dissociation constant, usually derived from enzyme kinetics or from competition with a known ligand. In the case of `COC(=O)c1[nH]c(=O)n(CCCCCN2CCC(C(=O)OC)(c3ccccc3)CC2)c1-c1ccc(F)c(F)c1` [Compound 1, 1-(5-(4-Methoxycarbonyl-4-phenylpiperidin-1-yl)pent-1-yl)-4-methoxycarbonyl-5-(3,4-difluorophenyl)-2,3-dihydro-2(1H)-imidazolone], the Ki was 329 nM.

As for `COC(=O)c1[nH]c(=O)n(CCCCCN2CCC(C#N)(c3ccccc3)CC2)c1-c1ccc(F)c(F)c1` [Compound 2, 5-(3,4-Difluorophenyl)-2,3-dihydro-4-methoxycarbonyl-1-(5-(4-cyano-4-phenylpiperidin-1-yl)pent-1-yl)-2(1H)-imidazolone], the Ki was found to be 367 nM.

Regarding `COC(=O)c1[nH]c(=O)n(CCCCCN2CCC(O)(c3ccccc3)CC2)c1-c1ccc(F)c(F)c1` [Compound 3, 5-(3,4-Difluorophenyl)-2,3-dihydro-4-methoxycarbonyl-1-(5-(4-hydroxy-4-phenylpiperidin-1-yl)pent-1-yl)-2(1H)-imidazolone], the inhibitory constant (Ki) was found to be 2660 nM.

Regarding `COC(=O)c1[nH]c(=O)n(CCCCCN2CCN(c3ccccc3C(N)=O)CC2)c1-c1cc(F)c(F)c(F)c1` [Compound 4, 1-(5-(4-(2-Aminocarbonylphenyl)piperazin-1-yl)pent-1-yl)-5-(3,4,5-trifluorophenyl)-2,3-dihydro-4-methoxycarbonyl-2(1H)-imidazolone], the inhibitory constant (Ki) is 279 nM.

For the molecule `COC(=O)c1ccccc1N1CCN(CCCCCn2c(-c3cc(F)c(F)c(F)c3)c(C(=O)OC)[nH]c2=O)CC1` [Compound 5, 5-(3,4,5-Trifluorophenyl)-2,3-dihydro-4-methoxycarbonyl-1-(5-(4-(2-methoxycarbonylphenyl)piperazin-1-yl)pent-1-yl)-2(1H)-imidazolone], the inhibition constant (Ki) was found to be 15.7 nM.

For the molecule `CCOC(=O)c1[nH]c(=O)n(CCCCCN2CCN(c3ccccc3C(N)=O)CC2)c1-c1ccc(F)c(F)c1` [Compound 6, 1-(5-(4-(2-Aminocarbonylphenyl)piperazin-1-yl)pent-1-yl)-4-ethoxycarbonyl-5-(3,4-difluorophenyl)-2,3-dihydro-2(1H)-imidazolone], the inhibitory constant (Ki) was 141 nM.

Regarding `COC(=O)c1[nH]c(=O)n(CCCCCN2CCN(c3ccccc3C(N)=O)CC2)c1-c1cc(F)c(F)cc1F` [Compound 7, 1-(5-(4-(2-Aminocarbonylphenyl)piperazin-1-yl)pent-1-yl)-5-(2,4,5-trifluorophenyl)-2,3-dihydro-4-methoxylcarboxy-2(1H)-imidazolone], the inhibitory constant (Ki) amounted to 197 nM.

Regarding `COC(=O)c1[nH]c(=O)n(CCCCCN2CCC(C(=O)OC)(c3ccccc3)CC2)c1Cc1ccc(F)c(F)c1` [Compound 37, 5-(3,4-Difluorobenzyl)-2,3-dihydro-4-methoxycarbonyl-1-(5-(4-methoxycarbonyl-4-phenylpiperidin-1-yl)pent-1-yl)-2(1H) -imidazolone], the inhibition constant (Ki) is 513 nM.

The values are drawn from patent publication US6046331A, “Imidazolones and their use in treating benign prostatic hyperplasia and other disorders” (Synaptic Pharmaceutical Corporation, priority 1998, dated 2000).
